From ChEMBL document CHEMBL5380841, “Discovery and Binding Mechanism of Pyrazoloisoquinoline-Based Novel β-Arrestin Inverse Agonists of the Kappa-Opioid Receptor” (J Med Chem, 2023)
Active and inactive are the calls of the source. No cut-off for these calls is given here.

Experiments:
[1] = biological target: T1, Kappa-type opioid receptor (Homo sapiens, UniProt P41145); assay: Inverse agonist activity at human KOR expressed in human HTLA cells assessed as beta arrestin-2 recruitment by ONE-Glo luciferase assay; type: functional, cell-based
T1 sequence (P41145 whole entry): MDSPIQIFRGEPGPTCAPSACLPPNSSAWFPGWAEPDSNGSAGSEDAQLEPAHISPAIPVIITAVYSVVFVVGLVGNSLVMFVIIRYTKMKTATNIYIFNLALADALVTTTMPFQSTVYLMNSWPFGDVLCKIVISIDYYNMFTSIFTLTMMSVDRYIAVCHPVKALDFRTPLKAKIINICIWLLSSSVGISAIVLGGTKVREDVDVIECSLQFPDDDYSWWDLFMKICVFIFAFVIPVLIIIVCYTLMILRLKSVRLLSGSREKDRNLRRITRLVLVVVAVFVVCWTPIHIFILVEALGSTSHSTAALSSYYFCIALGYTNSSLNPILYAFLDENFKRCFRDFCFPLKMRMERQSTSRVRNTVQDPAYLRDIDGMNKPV

[2] = biological target: T1, Kappa-type opioid receptor; assay: Inverse agonist activity at human KOR expressed in human HTLA cells assessed as beta arrestin-2 recruitment at 10 uM by ONE-Glo luciferase assay relative to 1-(5-(2-Chlorophenyl)-7,8-dimethoxy-3-(3-methoxybenzyl)-3H-pyrazolo(3,4-c)isoquinolin-1-yl)-N-(3-methoxybenzyl)-methanamine; type: functional, cell-based
[3] = biological target: Mu-type opioid receptor (Homo sapiens) (UniProt P35372); assay: Inverse agonist activity at MOR (unknown origin) expressed in HEK293T cells assessed as beta arrestin-2 recruitment upto 10 uM incubated for 20 mins by NanoBiT assay; type: functional, cell-based
Chain of Mu-type opioid receptor (Homo sapiens) (P35372 whole entry): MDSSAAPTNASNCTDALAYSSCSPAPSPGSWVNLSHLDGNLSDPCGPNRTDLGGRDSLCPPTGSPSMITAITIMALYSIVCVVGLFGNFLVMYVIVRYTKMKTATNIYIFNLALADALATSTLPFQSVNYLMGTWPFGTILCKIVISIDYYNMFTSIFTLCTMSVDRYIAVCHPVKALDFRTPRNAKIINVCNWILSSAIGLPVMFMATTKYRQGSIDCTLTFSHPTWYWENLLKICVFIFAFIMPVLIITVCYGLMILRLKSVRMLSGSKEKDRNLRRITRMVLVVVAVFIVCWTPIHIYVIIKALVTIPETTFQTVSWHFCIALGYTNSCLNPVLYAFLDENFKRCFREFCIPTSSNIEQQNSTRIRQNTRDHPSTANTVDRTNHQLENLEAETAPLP

[4] = biological target: T1, Kappa-type opioid receptor; assay: Inverse agonist activity at human KOR expressed in human HTLA cells assessed as beta arrestin-2 recruitment upto 10 uM by ONE-Glo luciferase assay; type: functional, cell-based
[5] = biological target: T2, Delta-type opioid receptor (Homo sapiens, UniProt P41143); assay: Inverse agonist activity at human DOR expressed in human HTLA cells assessed as beta arrestin-2 recruitment by ONE-Glo luciferase assay; type: functional, cell-based
T2 sequence (P41143 whole entry): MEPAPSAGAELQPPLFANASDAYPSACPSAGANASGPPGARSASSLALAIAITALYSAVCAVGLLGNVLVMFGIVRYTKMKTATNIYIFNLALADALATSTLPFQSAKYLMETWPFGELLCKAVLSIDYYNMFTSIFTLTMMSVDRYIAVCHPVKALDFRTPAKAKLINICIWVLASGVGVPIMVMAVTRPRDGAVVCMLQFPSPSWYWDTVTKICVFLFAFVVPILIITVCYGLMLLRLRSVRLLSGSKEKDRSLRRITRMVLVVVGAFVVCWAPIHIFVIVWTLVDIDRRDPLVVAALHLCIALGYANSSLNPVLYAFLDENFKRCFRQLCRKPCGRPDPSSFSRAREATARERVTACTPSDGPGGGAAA

Homo sapiens = organism: Homo sapiens; assay: Selectivity ratio of EC50 for human DOR expressed in human HTLA cells assessed as beta arrestin-2 recruitment to EC50 for human KOR expressed in human HTLA cells assessed as beta arrestin-2 recruitment; type: cell-based
[6] = Permeability of the compound across blood brain barrier at pH 7.4 at 50 uM incubated for 4 hrs by PAMPA assay; type: ADME; details: read-out: permeability
[7] = biological target: T1, Kappa-type opioid receptor; assay: Displacement of [3H]diprenorphine from human KOR expressed in HEK293 cells assessed as maximum inhibition at 10 uM incubated for 60 mins by liquid scintillation method relative to control; type: cell-based; details: filed as inverse agonist
[8] = biological target: Mu-type opioid receptor (Homo sapiens) (UniProt P35372); assay: Displacement of [3H]naltrindole from MOR (unknown origin) upto 1 uM by radioligand binding assay relative to control
[9] = biological target: T2, Delta-type opioid receptor; assay: Displacement of [3H]naltrindole from DOR (unknown origin) upto 1 uM by radioligand binding assay relative to control
[10] = biological target: T1, Kappa-type opioid receptor; assay: Displacement of [3H]diprenorphine from human KOR expressed in HEK293 cells incubated for 60 mins by liquid scintillation method; type: cell-based
[11] = biological target: T1, Kappa-type opioid receptor; assay: Displacement of [3H]diprenorphine from human KOR expressed in HEK293 cells assessed as inhibition constant incubated for 60 mins by liquid scintillation method; type: cell-based
[12] = biological target: T2, Delta-type opioid receptor; assay: Inverse agonist activity at human DOR assessed as cAMP inhibition pretreated for 5 mins followed by forskolin treatment measured after 15 mins by Glo-Sensor cAMP cell based assay; type: functional; details: time 20.0 min
[13] = biological target: T1, Kappa-type opioid receptor; assay: Inverse agonist activity at human KOR assessed as cAMP inhibition pretreated for 5 mins followed by forskolin treatment measured after 15 mins by Glo-Sensor cAMP cell based assay; type: functional; details: time 20.0 min
[14] = biological target: Mu-type opioid receptor (Homo sapiens) (UniProt P35372); assay: Inverse agonist activity at human MOR assessed as cAMP inhibition pretreated for 5 mins followed by forskolin treatment measured after 15 mins by Glo-Sensor cAMP cell based assay; type: functional; details: time 20.0 min

With `COc1cccc(Cn2nc(CNCc3ccc(Oc4ccccc4)cc3)c3c4cc(OC)c(OC)cc4c(-c4ccccc4Cl)nc32)c1` the EC50 [1] was 338 nM, the Emax [2] was -91.8% and the Activity [3] was “inactive”.

In the case of `COc1cccc(CNCc2nn(Cc3cccc(OC)c3)c3ncc4cc(OC)c(OC)cc4c23)c1`, the Activity [2] is reported as “inactive”, the Activity [3] is reported as “inactive” and the Activity [4] is reported as “inactive”.

For `COc1cccc(Cn2nc(CNCc3cccc(Oc4ccccc4)c3)c3c4cc(OC)c(OC)cc4c(-c4ccccc4Cl)nc32)c1`, the EC50 [5] was 49.5 nM, the EC50 [1] was 9.1 nM and the Emax [2] was -100%. The Activity [3] was “inactive” and the Ratio EC50 (Homo sapiens) was 5.

In the case of `COc1cccc(Cn2nc(CNCc3ccc4ccccc4c3)c3c4cc(OC)c(OC)cc4c(-c4ccccc4Cl)nc32)c1`, the EC50 [1] is reported as 94.3 nM, the Emax [2] is reported as -97.6% and the Activity [3] is reported as “inactive”.

For `COc1cccc(CCNCc2nn(Cc3cccc(OC)c3)c3nc(-c4ccccc4Cl)c4cc(OC)c(OC)cc4c23)c1`, the EC50 [1] was 1060 nM, the Emax [2] was -72.8% and the Activity [3] was “inactive”.

`CNC(=C[N+](=O)[O-])NCCSCc1ccc(CN(C)C)o1.Cl` [RANITIDINE HYDROCHLORIDE] showed a Papp at 4 h, 50 µM [6] of 0.12 ×10⁻⁶ cm/s.

Compound `COc1cccc(Cn2nc(CNCCc3ccc4ccccc4c3)c3c4cc(OC)c(OC)cc4c(-c4ccccc4Cl)nc32)c1` has an EC50 [5] of 691 nM, an EC50 [1] of 69.9 nM and an Emax [2] of -97.2%. The Activity [3] was “inactive” and the Ratio EC50 (Homo sapiens) was 10.

For `COc1cccc(Cn2nc(CNCc3cccc(OCc4ccccc4)c3)c3c4cc(OC)c(OC)cc4c(-c4ccccc4Cl)nc32)c1`, the EC50 [5] was 207 nM, the Imax [7] was 72% and the EC50 [1] was 9.33 nM. It also gave an Emax [2] of -103%, an inhibition [8] of 20% and an inhibition [9] of 10%. The Activity [3] was “inactive”, the IC50 [10] was 250 nM and the Ratio EC50 (Homo sapiens) was 22. It also gave a Ki [11] of 100 nM.

With `COc1cccc(Cn2nc(CNCCc3cccc(Oc4ccccc4)c3)c3c4cc(OC)c(OC)cc4c(-c4ccccc4Cl)nc32)c1` the EC50 [1] was 227 nM, the Emax [2] was -81.9% and the Activity [3] was “inactive”.

In the case of `COc1cc2c(-c3ccccc3Cl)nc3c(c(CNCc4cccc(Oc5ccccc5)c4)nn3CC3CCNCC3)c2cc1OC`, the EC50 [1] is reported as 2670 nM, the Emax [2] is reported as -95.1% and the Activity [3] is reported as “inactive”.

In the case of `COc1cc2c(-c3ccccc3Cl)nc3c(c(CNCc4cccc(Oc5ccccc5)c4)nn3CC3CCN(C(=O)OC(C)(C)C)CC3)c2cc1OC`, the EC50 [1] is reported as 674 nM, the Emax [2] is reported as -99.4% and the Activity [3] is reported as “inactive”.

Work on `O=C(Cc1ccc(Cl)c(Cl)c1)N1CCCC[C@H]1CN1CCCC1` yielded an EC50 [1] of 10.5 nM and an Emax [2] of -100%.

With `COc1cccc(Cn2nc(CNCc3cc4ccccc4[nH]3)c3c4cc(OC)c(OC)cc4c(-c4ccccc4Cl)nc32)c1` the EC50 [1] was 339 nM, the Emax [2] was -98.3% and the Activity [3] was “inactive”.

For `COc1cc2c(-c3ccccc3Cl)nc3c(c(CNCc4cccc(Oc5ccccc5)c4)nn3Cc3cccc(Cl)c3)c2cc1OC`, the EC50 [1] was 105 nM, the Emax [2] was -101% and the Activity [3] was “inactive”.

In the case of `COc1cccc(Cn2nc(CNCc3ccc(OC)c(OC)c3)c3c4cc(OC)c(OC)cc4c(-c4ccccc4Cl)nc32)c1`, the EC50 [1] is reported as 643 nM, the Emax [2] is reported as -103% and the Activity [3] is reported as “inactive”.

In the case of `COc1cccc(Cn2nc(CNc3ccc4ccccc4c3)c3c4cc(OC)c(OC)cc4c(-c4ccccc4Cl)nc32)c1`, the Activity [2] is reported as “inactive”, the Activity [3] is reported as “inactive” and the Activity [4] is reported as “inactive”.

For `CC(=O)[C@H]1CC[C@H]2[C@@H]3CCC4=CC(=O)CC[C@]4(C)[C@H]3CC[C@]12C` [PROGESTERONE], the Papp at 4 h, 50 µM [6] was 37.8 ×10⁻⁶ cm/s.

For `COc1cccc(Cn2nc(CNCc3cccc4ccccc34)c3c4cc(OC)c(OC)cc4c(-c4ccccc4Cl)nc32)c1`, the EC50 [1] was 430 nM, the Emax [2] was -96.7% and the Activity [3] was “inactive”.

With `COc1ccc(CNCc2nn(Cc3cccc(OC)c3)c3nc(-c4ccccc4Cl)c4cc(OC)c(OC)cc4c23)cc1` the EC50 [1] was 103 nM, the Emax [2] was -98.2% and the Activity [3] was “inactive”.

With `COc1cccc(Cn2nc(CNCc3ccccc3Oc3ccccc3)c3c4cc(OC)c(OC)cc4c(-c4ccccc4Cl)nc32)c1` the EC50 [1] was 54.5 nM, the Emax [2] was -104% and the Activity [3] was “inactive”.

For `COc1cccc(CNCc2nn(Cc3cccc(OC)c3)c3nc(-c4ccccc4Cl)c4cc(OC)c(OC)cc4c23)c1`, the EC50 [5] was 483 nM, the EC50 [1] was 127 nM and the Activity [12] was “inactive”. For the same compound, the Activity [3] was “inactive”, the Activity [13] was “inactive” and the Activity [14] was “inactive”.

In the case of `COc1cccc(CNCc2n[nH]c3nc(-c4ccccc4Cl)c4cc(OC)c(OC)cc4c23)c1`, the Activity [2] is reported as “inactive”, the Activity [3] is reported as “inactive” and the Activity [4] is reported as “inactive”.

For `COc1cccc(Cn2nc(CNc3cccc(OC)c3)c3c4cc(OC)c(OC)cc4c(-c4ccccc4Cl)nc32)c1`, the Activity [2] was “inactive”, the Activity [3] was “inactive” and the Activity [4] was “inactive”.
